# Results taken from ChEMBL document CHEMBL4229381, “New cytokinin derivatives possess UVA and UVB photoprotective effect on human skin cells and prevent oxidative stress” (Eur J Med Chem, 2018).
# Calls of active or inactive are those of the source. The calls are words filed in the database; no cut-off is given here.
# What was measured:
# HaCaT [1] = assay: Cytotoxicity in human HaCaT cells assessed as reduction in cell viability at 50 uM after 24 hrs by resazurin dye-based fluorescence assay relative to control
# BJ = assay: Cytotoxicity in human BJ cells assessed as reduction in cell viability at 50 uM after 24 hrs by resazurin dye-based fluorescence assay relative to control
# [2] = Cytotoxicity in human NHDF cells assessed as cell viability at 3.9 uM after 24 hrs by neutral red uptake assay relative to control; format: cell-based; details: read-out: Activity
# [3] = Cytotoxicity in human NHDF cells assessed as cell viability at 7.8 uM after 24 hrs by neutral red uptake assay relative to control; format: cell-based; details: read-out: Activity
# [4] = Cytotoxicity in human NHDF cells assessed as cell viability at 15.6 uM after 24 hrs by neutral red uptake assay relative to control; format: cell-based; details: read-out: Activity
# [5] = Cytotoxicity in human NHDF cells assessed as cell viability at 31.3 uM after 24 hrs by neutral red uptake assay relative to control; format: cell-based; details: read-out: Activity
# [6] = Cytotoxicity in human NHDF cells assessed as cell viability at 62.5 uM after 24 hrs by neutral red uptake assay relative to control; format: cell-based; details: read-out: Activity
# [7] = Cytotoxicity in human NHDF cells assessed as cell viability at 125 uM after 24 hrs by neutral red uptake assay relative to control; format: cell-based; details: read-out: Activity
# [8] = Phototoxicity in human NHDF cells assessed as cell viability at 3.9 uM preincubated for 60 mins followed by 5 J/cm2 UVA irradiation and measured after 24 hrs by neutral red uptake assay relative to control; format: cell-based; details: read-out: Activity
# [9] = Phototoxicity in human NHDF cells assessed as cell viability at 7.8 uM preincubated for 60 mins followed by 5 J/cm2 UVA irradiation and measured after 24 hrs by neutral red uptake assay relative to control; format: cell-based; details: read-out: Activity
# [10] = Phototoxicity in human NHDF cells assessed as cell viability at 15.6 uM preincubated for 60 mins followed by 5 J/cm2 UVA irradiation and measured after 24 hrs by neutral red uptake assay relative to control; format: cell-based; details: read-out: Activity
# [11] = Phototoxicity in human NHDF cells assessed as cell viability at 31.3 uM preincubated for 60 mins followed by 5 J/cm2 UVA irradiation and measured after 24 hrs by neutral red uptake assay relative to control; format: cell-based; details: read-out: Activity
# [12] = Phototoxicity in human NHDF cells assessed as cell viability at 62.5 uM preincubated for 60 mins followed by 5 J/cm2 UVA irradiation and measured after 24 hrs by neutral red uptake assay relative to control; format: cell-based; details: read-out: Activity
# [13] = Phototoxicity in human NHDF cells assessed as cell viability at 125 uM preincubated for 60 mins followed by 5 J/cm2 UVA irradiation and measured after 24 hrs by neutral red uptake assay relative to control; format: cell-based; details: read-out: Activity
# [14] = Cytotoxicity in human HaCaT cells assessed as cell viability at 3.9 uM after 24 hrs by neutral red uptake assay relative to control; format: cell-based; details: read-out: Activity
# [15] = Cytotoxicity in human HaCaT cells assessed as cell viability at 7.8 uM after 24 hrs by neutral red uptake assay relative to control; format: cell-based; details: read-out: Activity
# [16] = Cytotoxicity in human HaCaT cells assessed as cell viability at 15.6 uM after 24 hrs by neutral red uptake assay relative to control; format: cell-based; details: read-out: Activity
# [17] = Cytotoxicity in human HaCaT cells assessed as cell viability at 31.3 uM after 24 hrs by neutral red uptake assay relative to control; format: cell-based; details: read-out: Activity
# [18] = Cytotoxicity in human HaCaT cells assessed as cell viability at 62.5 uM after 24 hrs by neutral red uptake assay relative to control; format: cell-based; details: read-out: Activity
# [19] = Cytotoxicity in human HaCaT cells assessed as cell viability at 125 uM after 24 hrs by neutral red uptake assay relative to control; format: cell-based; details: read-out: Activity
# [20] = Phototoxicity in human HaCaT cells assessed as cell viability at 3.9 uM preincubated for 60 mins followed by 7.5 J/cm2 UVA irradiation and measured after 24 hrs by neutral red uptake assay relative to control; format: cell-based; details: read-out: Activity
# [21] = Phototoxicity in human HaCaT cells assessed as cell viability at 7.8 uM preincubated for 60 mins followed by 7.5 J/cm2 UVA irradiation and measured after 24 hrs by neutral red uptake assay relative to control; format: cell-based; details: read-out: Activity
# [22] = Phototoxicity in human HaCaT cells assessed as cell viability at 15.6 uM preincubated for 60 mins followed by 7.5 J/cm2 UVA irradiation and measured after 24 hrs by neutral red uptake assay relative to control; format: cell-based; details: read-out: Activity
# [23] = Phototoxicity in human HaCaT cells assessed as cell viability at 31.3 uM preincubated for 60 mins followed by 7.5 J/cm2 UVA irradiation and measured after 24 hrs by neutral red uptake assay relative to control; format: cell-based; details: read-out: Activity
# [24] = Phototoxicity in human HaCaT cells assessed as cell viability at 62.5 uM preincubated for 60 mins followed by 7.5 J/cm2 UVA irradiation and measured after 24 hrs by neutral red uptake assay relative to control; format: cell-based; details: read-out: Activity
# [25] = Phototoxicity in human HaCaT cells assessed as cell viability at 125 uM preincubated for 60 mins followed by 7.5 J/cm2 UVA irradiation and measured after 24 hrs by neutral red uptake assay relative to control; format: cell-based; details: read-out: Activity
# HaCaT [26] = assay: Cytoprotection against phototoxicity in human HaCaT cells assessed as increase in cell viability at 3.9 uM preincubated for 60 mins followed by 10 J/cm2 UVA irradiation and measured after 24 hrs by neutral red uptake assay; format: functional, cell-based
# HaCaT [27] = assay: Cytoprotection against phototoxicity in human HaCaT cells assessed as increase in cell viability at 3.9 to 31.3 uM preincubated for 60 mins followed by 150 mJ/cm2 UVB irradiation and measured after 24 hrs by neutral red uptake assay; format: functional, cell-based
# NHDF [28] = assay: Cytoprotection against phototoxicity in human NHDF cells assessed as increase in cell viability at 3.9 to 31.3 uM preincubated for 60 mins followed by 150 mJ/cm2 UVB irradiation and measured after 24 hrs by neutral red uptake assay; format: functional, cell-based
# HaCaT [29] = assay: Potency index, ratio of compound effect to rosmarinic acid effect for cytoprotection against phototoxicity in human HaCaT cells assessed as increase in cell viability at 3.9 uM preincubated for 60 mins followed by 150 mJ/cm2 UVB irradiation and measured after 24 hrs by neutral red uptake assay; format: functional
# [30] = Antioxidant activity assessed as trolox equivalent of AAPH-induced radical scavenging activity at 1 uM pretreated for 15 mins followed by […] challenge measured every 3 mins over 90 mins by ORAC-FL assay; format: functional
# Nicotiana tabacum = assay: Growth promoting activity in tobacco callus assessed as callus weight at 10^-5 mol/L after 4 weeks relative to control; format: functional
# Amaranthus caudatus = assay: Growth promoting activity in Amaranthus caudatus var. atropurpurea seeds by measuring betacyanin at 10^-4 mol/L after 48 hrs relative to control; format: functional
# Triticum aestivum = assay: Anti-senescent activity in leaf of Triticum aestivum cv. Hereward seedlings by measuring chlorophyll retention at 10^-4 mol/L after 4 days relative to control; format: functional
# HaCaT [31] = assay: Potency index, ratio […] for cytoprotection against phototoxicity in human HaCaT cells assessed as increase in cell viability at 3.9 preincubated for 60 mins followed by 150 mJ/cm2 UVB irradiation and measured after 24 hrs by neutral red uptake assay; format: functional
# [32] = Stability of the compound in pH 7 solution at 10^-4 M after 1 hr by HPLC analysis; format: physicochemical; details: read-out: Stability
# [33] = Stability of the compound in pH 6 solution at 10^-4 M after 1 hr by HPLC analysis; format: physicochemical; details: read-out: Stability
# [34] = Stability of the compound in pH 5 solution at 10^-4 M after 1 hr by HPLC analysis; format: physicochemical; details: read-out: Stability
# [35] = Stability of the compound in pH 4 solution at 10^-4 M after 1 hr by HPLC analysis; format: physicochemical; details: read-out: Stability
# [36] = Stability of the compound in pH 3 solution at 10^-4 M after 1 hr by HPLC analysis; format: physicochemical; details: read-out: Stability
# [37] = Stability of the compound in pH 7 solution at 10^-4 M after 24 hrs by HPLC analysis; format: physicochemical; details: read-out: Stability
# [38] = Stability of the compound in pH 6 solution at 10^-4 M after 24 hrs by HPLC analysis; format: physicochemical; details: read-out: Stability
# [39] = Stability of the compound in pH 5 solution at 10^-4 M after 24 hrs by HPLC analysis; format: physicochemical; details: read-out: Stability
# [40] = Stability of the compound in pH 4 solution at 10^-4 M after 24 hrs by HPLC analysis; format: physicochemical; details: read-out: Stability
# [41] = Stability of the compound in pH 3 solution at 10^-4 M after 24 hrs by HPLC analysis; format: physicochemical; details: read-out: Stability
# NHDF [42] = assay: Phototoxicity in human NHDF cells assessed as reduction in cell viability preincubated for 60 mins followed by 5 J/cm2 UVA irradiation and measured after 24 hrs by neutral red uptake assay; format: cell-based; details: light or radiation study
# HaCaT [43] = assay: Phototoxicity in human HaCaT cells assessed as reduction in cell viability preincubated for 60 mins followed by 7.5 J/cm2 UVA irradiation and measured after 24 hrs by neutral red uptake assay; format: cell-based; details: light or radiation study
smiles,measurement,setting,value
Clc1nc(NCC2CCCO2)c2ncn(C3CCCO3)c2n1 (stereo unspecified),Activity,HaCaT [1],< 10%
same,Activity,BJ,< 10%
same,"viability at 24 h, 3.9 µM",[2],103%
same,"viability at 24 h, 7.8 µM",[3],103%
same,"viability at 24 h, 15.6 µM",[4],101%
same,"viability at 24 h, 31.3 µM",[5],106%
same,"viability at 24 h, 62.5 µM",[6],102%
same,"viability at 24 h, 125 µM",[7],104%
same,"viability at 24 h, 3.9 µM",[8],100%
same,"viability at 24 h, 7.8 µM",[9],103%
same,"viability at 24 h, 15.6 µM",[10],100%
same,"viability at 24 h, 31.3 µM",[11],103%
same,"viability at 24 h, 62.5 µM",[12],105%
same,"viability at 24 h, 125 µM",[13],105%
same,"viability at 24 h, 3.9 µM",[14],104%
same,"viability at 24 h, 7.8 µM",[15],103%
same,"viability at 24 h, 15.6 µM",[16],104%
same,"viability at 24 h, 31.3 µM",[17],109%
same,"viability at 24 h, 62.5 µM",[18],111%
same,"viability at 24 h, 125 µM",[19],111%
same,"viability at 24 h, 3.9 µM",[20],105%
same,"viability at 24 h, 7.8 µM",[21],112%
same,"viability at 24 h, 15.6 µM",[22],110%
same,"viability at 24 h, 31.3 µM",[23],121%
same,"viability at 24 h, 62.5 µM",[24],126%
same,"viability at 24 h, 125 µM",[25],126%
same,Activity,HaCaT [26],inactive
same,Activity,HaCaT [27],Active
same,Activity,NHDF [28],Active
same,Ratio,HaCaT [29],>2
same,Activity,[30],< 0.05 equiv
same,Activity,Nicotiana tabacum,104%
same,Activity,Amaranthus caudatus,83%
same,Activity,Triticum aestivum,111%
same,Ratio,HaCaT [31],>2
c1nc(NCC2CCCO2)c2ncn(C3CCCO3)c2n1 (stereo unspecified),"remaining at 1 h, 100 µM",[32],100%
same,"remaining at 1 h, 100 µM",[33],100%
same,"remaining at 1 h, 100 µM",[34],100%
same,"remaining at 1 h, 100 µM",[35],100%
same,"remaining at 1 h, 100 µM",[36],94.3%
same,"remaining at 24 h, 100 µM",[37],100%
same,"remaining at 24 h, 100 µM",[38],100%
same,"remaining at 24 h, 100 µM",[39],92.6%
same,"remaining at 24 h, 100 µM",[40],44.3%
same,"remaining at 24 h, 100 µM",[41],0.4%
same,Activity,[30],< 0.05 equiv
same,Activity,Nicotiana tabacum,100%
same,Activity,Amaranthus caudatus,38%
same,Activity,Triticum aestivum,116%
CN(C)CCCN1c2ccccc2Sc2ccc(Cl)cc21 [CHLORPROMAZINE],IC50,NHDF [42],25.5 µM
same,IC50,HaCaT [43],36.1 µM
